The values below are quoted from earlier work in paper PMC5751249, “Anti-Diabetic Effect of Organo-Chalcogen (Sulfur and Selenium) Zinc Complexes with Hydroxy-Pyrone Derivatives on Leptin-Deficient Type 2 Diabetes Model ob/ob Mice” (International Journal of Molecular Sciences, 2017).

This series concerns male ICR mice. More on the design: method as in doi:10.1248/jhs1956.39.4_289. To be noted: six days per week, 30 days, cited from earlier work.

Consider `N[C@@H](C[SeH])C(=O)O` (racemic) [D,L-selenocysteine], for which, where the note is “oral once daily 30 mg/kg/day (13.9 mg Se/kg/day)”, the Lethality is reported as 100%. Besides, the Hepatic histology finding entry (oral once daily 30 mg/kg/day) was “vacuolation of centrilobular and peripheral hepatocytes”.
